Data: the kinase profiling compilation of Christmann-Franck et al. (2016)

Experiments:
Test in all cases: radiometric filter-binding kinase assay, Kinase HotSpot
Conditions in all cases: compound 0.5 µM; ATP 10 µM
MINK1 (human) = MINK1 (human) (UniProt Q8N4C8)
STK33 (human) = STK33 (human) (UniProt Q9BYT3)
MAPK10 (human) = MAPK10 (human) (UniProt P53779)
CDK1 CCNA2 (human) = CDK1 CCNA2 (human) (UniProt P06493+P20248)
MAPK1 (human) = MAPK1 (human) (UniProt P28482)
PRKCB2 (human) = PRKCB2 (human) (UniProt P05771)
AKT2 (human) = AKT2 (human) (UniProt P31751)
CDK2 CCNA2 (human) = CDK2 CCNA2 (human) (UniProt P24941+P20248)
BTK (human) = BTK (human) (UniProt Q06187)
NTRK2 (human) = NTRK2 (human) (UniProt Q16620)
CAMK4 (human) = CAMK4 (human) (UniProt Q16566)
NEK3 (human) = NEK3 (human) (UniProt P51956)
CDK2 CCNE1 (human) = CDK2 CCNE1 (human) (UniProt P24941+P24864)
PRKCI (human) = PRKCI (human) (UniProt P41743)
SRPK2 (human) = SRPK2 (human) (UniProt P78362)
PDPK1 (human) = PDPK1 (human) (UniProt O15530)
IGF1R (human) = IGF1R (human) (UniProt P08069)
PAK6 (human) = PAK6 (human) (UniProt Q9NQU5)
HIPK2 (human) = HIPK2 (human) (UniProt Q9H2X6)
SRPK3 (human) = SRPK3 (human) (UniProt Q9UPE1)
GRK4 (human) = GRK4 (human) (UniProt P32298)
TGFBR1 (human) = TGFBR1 (human) (UniProt P36897)
CSNK1G1 (human) = CSNK1G1 (human) (UniProt Q9HCP0)
MAP4K2 (human) = MAP4K2 (human) (UniProt Q12851)
TSSK1B (human) = TSSK1B (human) (UniProt Q9BXA7)
CDK7 CCNH MNAT1 (human) = CDK7 CCNH MNAT1 (human) (UniProt P50613+P51948+P51946)
MAPKAPK5 (human) = MAPKAPK5 (human) (UniProt Q8IW41)
CAMK1 (human) = CAMK1 (human) (UniProt Q14012)
CHUK (human) = CHUK (human) (UniProt O15111)
PRKG2 (human) = PRKG2 (human) (UniProt Q13237)
EPHA5 (human) = EPHA5 (human) (UniProt P54756)
GRK5 (human) = GRK5 (human) (UniProt P34947)
ACVRL1 (human) = ACVRL1 (human) (UniProt P37023)
MKNK2 (human) = MKNK2 (human) (UniProt Q9HBH9)
CAMK2A (human) = CAMK2A (human) (UniProt Q9UQM7)
NEK6 (human) = NEK6 (human) (UniProt Q9HC98)
MAP3K10 (human) = MAP3K10 (human) (UniProt Q02779)
KIT (human) = KIT (human) (UniProt P10721)
DYRK3 (human) = DYRK3 (human) (UniProt O43781)
PRKD2 (human) = PRKD2 (human) (UniProt Q9BZL6)
MELK (human) = MELK (human) (UniProt Q14680)
ABL2 (human) = ABL2 (human) (UniProt P42684)

Chain of MAP4K2 (human) (Q12851 whole entry, looked up): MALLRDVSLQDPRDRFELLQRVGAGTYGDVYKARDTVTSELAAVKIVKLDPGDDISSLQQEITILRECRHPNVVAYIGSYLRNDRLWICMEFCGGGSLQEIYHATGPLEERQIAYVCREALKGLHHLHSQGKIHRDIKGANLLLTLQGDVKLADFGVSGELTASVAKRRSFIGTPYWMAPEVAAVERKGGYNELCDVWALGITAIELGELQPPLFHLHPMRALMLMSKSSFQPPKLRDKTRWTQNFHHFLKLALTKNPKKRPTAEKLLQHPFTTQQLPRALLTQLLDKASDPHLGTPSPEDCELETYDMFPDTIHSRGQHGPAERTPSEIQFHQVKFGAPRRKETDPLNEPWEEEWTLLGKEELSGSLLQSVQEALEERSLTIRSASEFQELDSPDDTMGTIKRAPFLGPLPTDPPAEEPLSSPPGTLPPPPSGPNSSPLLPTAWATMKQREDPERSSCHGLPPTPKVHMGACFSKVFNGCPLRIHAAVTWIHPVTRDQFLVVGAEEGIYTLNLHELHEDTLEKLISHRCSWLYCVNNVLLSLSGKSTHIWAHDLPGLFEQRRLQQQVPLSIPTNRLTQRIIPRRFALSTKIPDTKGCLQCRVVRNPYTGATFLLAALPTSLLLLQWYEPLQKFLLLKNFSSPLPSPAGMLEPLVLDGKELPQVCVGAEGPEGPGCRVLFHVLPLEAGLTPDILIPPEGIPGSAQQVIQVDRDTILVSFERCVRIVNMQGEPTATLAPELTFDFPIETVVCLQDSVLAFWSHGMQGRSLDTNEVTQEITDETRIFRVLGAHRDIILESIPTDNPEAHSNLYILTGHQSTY
Chain of NEK3 (human) (P51956 whole entry, looked up): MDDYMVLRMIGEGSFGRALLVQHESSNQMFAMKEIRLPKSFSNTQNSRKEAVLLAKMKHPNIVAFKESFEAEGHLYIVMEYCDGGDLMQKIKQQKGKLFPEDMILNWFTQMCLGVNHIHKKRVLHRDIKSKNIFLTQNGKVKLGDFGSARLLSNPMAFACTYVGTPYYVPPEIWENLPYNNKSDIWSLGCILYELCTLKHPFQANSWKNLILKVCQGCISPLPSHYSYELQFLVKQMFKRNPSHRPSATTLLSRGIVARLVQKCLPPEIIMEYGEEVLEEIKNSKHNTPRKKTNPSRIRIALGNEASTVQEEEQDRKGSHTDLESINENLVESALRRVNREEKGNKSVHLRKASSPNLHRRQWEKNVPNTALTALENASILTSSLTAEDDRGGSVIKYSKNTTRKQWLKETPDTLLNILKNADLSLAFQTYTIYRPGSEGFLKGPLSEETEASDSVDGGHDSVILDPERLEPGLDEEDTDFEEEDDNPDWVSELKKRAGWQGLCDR
Chain of NEK6 (human) (Q9HC98 whole entry, looked up): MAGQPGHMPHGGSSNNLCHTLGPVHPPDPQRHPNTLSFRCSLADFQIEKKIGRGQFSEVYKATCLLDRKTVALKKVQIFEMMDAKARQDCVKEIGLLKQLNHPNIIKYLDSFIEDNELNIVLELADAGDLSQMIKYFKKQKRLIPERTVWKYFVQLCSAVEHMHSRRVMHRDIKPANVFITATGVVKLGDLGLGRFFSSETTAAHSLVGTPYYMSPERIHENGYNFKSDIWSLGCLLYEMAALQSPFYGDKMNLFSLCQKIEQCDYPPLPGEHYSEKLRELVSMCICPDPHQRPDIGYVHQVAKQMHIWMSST
Chain of SRPK3 (human) (Q9UPE1 whole entry, looked up): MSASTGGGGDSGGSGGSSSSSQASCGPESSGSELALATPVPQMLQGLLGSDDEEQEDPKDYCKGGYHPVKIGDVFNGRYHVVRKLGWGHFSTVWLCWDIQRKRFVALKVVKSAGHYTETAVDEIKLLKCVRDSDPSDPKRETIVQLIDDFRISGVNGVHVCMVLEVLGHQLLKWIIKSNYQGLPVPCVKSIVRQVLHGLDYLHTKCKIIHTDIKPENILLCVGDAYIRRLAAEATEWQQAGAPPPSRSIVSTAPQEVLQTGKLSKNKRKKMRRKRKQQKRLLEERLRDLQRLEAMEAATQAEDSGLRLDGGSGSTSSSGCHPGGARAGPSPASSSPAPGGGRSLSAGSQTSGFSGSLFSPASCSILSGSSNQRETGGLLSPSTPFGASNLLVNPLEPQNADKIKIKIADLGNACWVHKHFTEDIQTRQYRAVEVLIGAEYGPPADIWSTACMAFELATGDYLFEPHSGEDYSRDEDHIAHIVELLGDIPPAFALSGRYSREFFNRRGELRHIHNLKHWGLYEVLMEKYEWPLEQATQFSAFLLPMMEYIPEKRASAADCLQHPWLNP
Chain of CAMK1 (human) (Q14012 whole entry, looked up): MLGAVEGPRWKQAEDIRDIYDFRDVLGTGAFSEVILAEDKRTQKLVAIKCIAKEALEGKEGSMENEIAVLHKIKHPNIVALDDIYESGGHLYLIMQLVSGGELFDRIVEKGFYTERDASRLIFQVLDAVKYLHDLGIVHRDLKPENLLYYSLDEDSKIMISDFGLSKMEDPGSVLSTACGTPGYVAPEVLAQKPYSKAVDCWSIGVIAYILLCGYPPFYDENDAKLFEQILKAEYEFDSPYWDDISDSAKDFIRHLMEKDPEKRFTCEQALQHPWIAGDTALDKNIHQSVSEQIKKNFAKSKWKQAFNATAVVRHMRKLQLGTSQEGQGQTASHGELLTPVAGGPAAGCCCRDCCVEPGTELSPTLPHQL
Chain of EPHA5 (human) (P54756 whole entry, looked up): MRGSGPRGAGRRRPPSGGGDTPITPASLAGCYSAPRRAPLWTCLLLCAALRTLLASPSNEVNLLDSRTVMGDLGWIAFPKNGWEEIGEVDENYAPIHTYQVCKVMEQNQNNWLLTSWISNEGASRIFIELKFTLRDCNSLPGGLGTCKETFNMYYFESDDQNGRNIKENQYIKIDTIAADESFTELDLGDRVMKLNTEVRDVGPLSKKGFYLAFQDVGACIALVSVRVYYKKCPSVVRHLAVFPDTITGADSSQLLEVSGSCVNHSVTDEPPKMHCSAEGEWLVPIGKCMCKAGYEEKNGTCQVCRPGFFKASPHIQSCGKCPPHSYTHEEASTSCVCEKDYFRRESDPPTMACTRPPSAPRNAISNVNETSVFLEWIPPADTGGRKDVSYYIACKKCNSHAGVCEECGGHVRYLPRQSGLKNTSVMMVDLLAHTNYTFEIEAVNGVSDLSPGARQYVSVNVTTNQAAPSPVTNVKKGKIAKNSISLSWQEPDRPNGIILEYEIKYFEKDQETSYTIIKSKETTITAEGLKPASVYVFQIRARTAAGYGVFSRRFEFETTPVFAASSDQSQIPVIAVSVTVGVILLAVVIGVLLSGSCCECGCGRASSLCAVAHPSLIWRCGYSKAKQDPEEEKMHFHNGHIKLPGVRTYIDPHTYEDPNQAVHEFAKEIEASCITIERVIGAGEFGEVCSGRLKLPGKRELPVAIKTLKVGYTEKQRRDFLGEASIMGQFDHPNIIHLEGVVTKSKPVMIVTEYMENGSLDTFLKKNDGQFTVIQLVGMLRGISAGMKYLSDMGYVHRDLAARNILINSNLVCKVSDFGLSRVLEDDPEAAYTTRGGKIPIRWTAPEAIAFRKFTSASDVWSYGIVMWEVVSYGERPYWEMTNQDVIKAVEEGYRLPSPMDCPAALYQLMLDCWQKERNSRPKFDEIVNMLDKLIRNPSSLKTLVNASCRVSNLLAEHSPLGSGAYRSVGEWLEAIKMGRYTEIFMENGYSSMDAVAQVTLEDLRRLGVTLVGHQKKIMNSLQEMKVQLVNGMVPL
Chain of GRK4 (human) (P32298 whole entry, looked up): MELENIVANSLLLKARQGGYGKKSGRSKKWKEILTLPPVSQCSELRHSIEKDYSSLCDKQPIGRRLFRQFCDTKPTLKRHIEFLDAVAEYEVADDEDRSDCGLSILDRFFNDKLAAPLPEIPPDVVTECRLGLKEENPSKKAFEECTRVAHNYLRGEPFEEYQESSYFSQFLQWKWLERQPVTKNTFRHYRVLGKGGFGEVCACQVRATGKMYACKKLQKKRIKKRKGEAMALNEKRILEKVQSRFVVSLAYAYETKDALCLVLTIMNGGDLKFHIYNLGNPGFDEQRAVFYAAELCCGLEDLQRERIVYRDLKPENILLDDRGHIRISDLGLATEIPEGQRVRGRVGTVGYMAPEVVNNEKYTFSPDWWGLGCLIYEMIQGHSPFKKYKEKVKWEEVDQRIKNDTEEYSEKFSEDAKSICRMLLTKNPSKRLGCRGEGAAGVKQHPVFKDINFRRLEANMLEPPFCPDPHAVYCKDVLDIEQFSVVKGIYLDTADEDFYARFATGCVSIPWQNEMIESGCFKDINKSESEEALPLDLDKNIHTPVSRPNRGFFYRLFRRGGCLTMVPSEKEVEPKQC
Chain of CDK2 CCNA2 (human) (P20248 whole entry, looked up, other chains not shown): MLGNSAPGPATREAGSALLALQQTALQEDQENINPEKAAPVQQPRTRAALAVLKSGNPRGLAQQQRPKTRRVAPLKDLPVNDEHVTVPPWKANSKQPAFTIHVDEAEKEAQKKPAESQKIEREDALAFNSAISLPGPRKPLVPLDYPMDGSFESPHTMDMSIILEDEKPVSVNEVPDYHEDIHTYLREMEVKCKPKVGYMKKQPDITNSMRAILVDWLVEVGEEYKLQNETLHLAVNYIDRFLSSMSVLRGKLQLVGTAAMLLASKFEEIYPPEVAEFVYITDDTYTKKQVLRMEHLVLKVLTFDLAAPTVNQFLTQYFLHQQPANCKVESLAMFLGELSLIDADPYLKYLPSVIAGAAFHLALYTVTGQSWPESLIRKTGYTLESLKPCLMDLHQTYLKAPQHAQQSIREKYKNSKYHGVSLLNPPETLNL
Chain of MAPK1 (human) (P28482 whole entry, looked up): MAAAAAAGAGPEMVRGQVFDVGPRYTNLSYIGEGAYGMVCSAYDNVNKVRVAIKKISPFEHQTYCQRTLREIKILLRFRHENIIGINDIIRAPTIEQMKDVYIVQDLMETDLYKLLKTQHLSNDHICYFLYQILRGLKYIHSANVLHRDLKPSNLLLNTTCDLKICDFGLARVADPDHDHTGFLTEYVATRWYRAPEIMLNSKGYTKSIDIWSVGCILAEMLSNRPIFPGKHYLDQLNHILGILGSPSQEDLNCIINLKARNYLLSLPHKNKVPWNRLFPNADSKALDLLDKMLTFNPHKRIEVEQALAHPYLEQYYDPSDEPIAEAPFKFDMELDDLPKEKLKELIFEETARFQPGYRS

How did the residual activity (MINK1 (human)) turn out when `O=C1Nc2cc(Br)ccc2/C1=C1/Nc2ccccc2/C1=N\O` was run?
Its residual activity is 47.8%.

And the residual activity (STK33 (human))?
Its residual activity is 69.4%.

And the residual activity (MAPK10 (human))?
Its residual activity is 97.9%.

What about the residual activity (CDK1 CCNA2 (human)) of the same compound?
Its residual activity is 59.7%.

And the residual activity (MAPK1 (human))?
The residual activity was 113%.

And the residual activity (PRKCB2 (human))?
Its residual activity is 108%.

What about the residual activity (AKT2 (human)) of the same compound?
Its residual activity is 101%.

And the residual activity (CDK2 CCNA2 (human))?
The residual activity was 7.66%.

What about the residual activity (BTK (human)) of the same compound?
Its residual activity is 13.1%.

What about the residual activity (NTRK2 (human)) of the same compound?
Its residual activity is 10.3%.

And the residual activity (CAMK4 (human))?
Its residual activity is 96.3%.

And the residual activity (NEK3 (human))?
Its residual activity is 84.4%.

What about the residual activity (CDK2 CCNE1 (human)) of the same compound?
Its residual activity is 15.4%.

And the residual activity (PRKCI (human))?
Its residual activity is 97.3%.

What about the residual activity (SRPK2 (human)) of the same compound?
Its residual activity is 63.9%.

What about the residual activity (PDPK1 (human)) of the same compound?
Its residual activity is 86.4%.

And the residual activity (IGF1R (human))?
The residual activity was 103%.

What about the residual activity (PAK6 (human)) of the same compound?
Its residual activity is 86.3%.

And the residual activity (HIPK2 (human))?
The residual activity was 96.2%.

What about the residual activity (SRPK3 (human)) of the same compound?
Its residual activity is 96.4%.

What about the residual activity (GRK4 (human)) of the same compound?
The residual activity was 90.1%.

What about the residual activity (TGFBR1 (human)) of the same compound?
Its residual activity is 99.8%.

What about the residual activity (CSNK1G1 (human)) of the same compound?
The residual activity was 87.6%.

And the residual activity (MAP4K2 (human))?
The residual activity was 61.5%.

And the residual activity (TSSK1B (human))?
Its residual activity is 83%.

What about the residual activity (CDK7 CCNH MNAT1 (human)) of the same compound?
Its residual activity is 79.1%.

And the residual activity (MAPKAPK5 (human))?
The residual activity was 82.7%.

What about the residual activity (CAMK1 (human)) of the same compound?
The residual activity was 96%.

And the residual activity (CHUK (human))?
Its residual activity is 104%.

And the residual activity (PRKG2 (human))?
The residual activity was 69.1%.

What about the residual activity (EPHA5 (human)) of the same compound?
The residual activity was 70.4%.

And the residual activity (GRK5 (human))?
Its residual activity is 125%.

What about the residual activity (ACVRL1 (human)) of the same compound?
The residual activity was 103%.

And the residual activity (MKNK2 (human))?
Its residual activity is 75.3%.

And the residual activity (CAMK2A (human))?
Its residual activity is 13.9%.

What about the residual activity (NEK6 (human)) of the same compound?
The residual activity was 99.9%.

What about the residual activity (MAP3K10 (human)) of the same compound?
Its residual activity is 92.1%.

And the residual activity (KIT (human))?
Its residual activity is 42.3%.

What about the residual activity (DYRK3 (human)) of the same compound?
The residual activity was 104%.

What about the residual activity (PRKD2 (human)) of the same compound?
Its residual activity is 94.1%.

And the residual activity (MELK (human))?
The residual activity was 43.5%.

Which residual activity (MINK1 (human)) does the source give for `CC(C)n1cnc2c(Nc3cccc(Cl)c3)nc(NCCO)nc21` here?
The residual activity was 86.3%.

And the residual activity (STK33 (human))?
Its residual activity is 68.1%.

And the residual activity (MAPK10 (human))?
The residual activity was 101%.

What about the residual activity (CDK1 CCNA2 (human)) of the same compound?
Its residual activity is 78.5%.

What about the residual activity (MAPK1 (human)) of the same compound?
The residual activity was 107%.

And the residual activity (PRKCB2 (human))?
The residual activity was 99.7%.

What about the residual activity (AKT2 (human)) of the same compound?
The residual activity was 92.4%.

And the residual activity (CDK2 CCNA2 (human))?
Its residual activity is 42%.

And the residual activity (BTK (human))?
The residual activity was 86.3%.

And the residual activity (NTRK2 (human))?
The residual activity was 66.1%.

What about the residual activity (CAMK4 (human)) of the same compound?
The residual activity was 101%.

And the residual activity (NEK3 (human))?
Its residual activity is 92.6%.

What about the residual activity (CDK2 CCNE1 (human)) of the same compound?
The residual activity was 37.2%.

What about the residual activity (PRKCI (human)) of the same compound?
Its residual activity is 101%.

What about the residual activity (SRPK2 (human)) of the same compound?
The residual activity was 37.1%.

What about the residual activity (PDPK1 (human)) of the same compound?
Its residual activity is 96.8%.

What about the residual activity (IGF1R (human)) of the same compound?
The residual activity was 90%.

What about the residual activity (HIPK2 (human)) of the same compound?
Its residual activity is 93.3%.

What about the residual activity (SRPK3 (human)) of the same compound?
Its residual activity is 47.7%.

And the residual activity (GRK4 (human))?
The residual activity was 93.5%.

And the residual activity (TGFBR1 (human))?
Its residual activity is 97.7%.

And the residual activity (CSNK1G1 (human))?
The residual activity was 16%.

And the residual activity (MAP4K2 (human))?
The residual activity was 87.6%.

What about the residual activity (TSSK1B (human)) of the same compound?
The residual activity was 91.9%.

And the residual activity (CDK7 CCNH MNAT1 (human))?
The residual activity was 78.5%.

What about the residual activity (MAPKAPK5 (human)) of the same compound?
The residual activity was 68.6%.

What about the residual activity (CAMK1 (human)) of the same compound?
Its residual activity is 71.2%.

What about the residual activity (CHUK (human)) of the same compound?
The residual activity was 96.1%.

What about the residual activity (PRKG2 (human)) of the same compound?
The residual activity was 82.7%.

And the residual activity (EPHA5 (human))?
The residual activity was 91.7%.

What about the residual activity (GRK5 (human)) of the same compound?
Its residual activity is 99.4%.

And the residual activity (ACVRL1 (human))?
Its residual activity is 103%.

What about the residual activity (ABL2 (human)) of the same compound?
Its residual activity is 60.7%.

And the residual activity (MKNK2 (human))?
The residual activity was 94.8%.

And the residual activity (CAMK2A (human))?
Its residual activity is 99.1%.

And the residual activity (NEK6 (human))?
The residual activity was 101%.

What about the residual activity (MAP3K10 (human)) of the same compound?
Its residual activity is 90.3%.

And the residual activity (KIT (human))?
The residual activity was 76.3%.

And the residual activity (DYRK3 (human))?
The residual activity was 97.2%.

What about the residual activity (PRKD2 (human)) of the same compound?
Its residual activity is 88.1%.

And the residual activity (MELK (human))?
The residual activity was 59.7%.
